Results published in patent publication US7846903B2, “Type II cubic liquid crystal composition” (National Institute of Advanced Industrial Science and …, priority 2004, dated 2010).

What was measured:
[1] = Formation and structure of cubic liquid crystals by polarizing microscopy (penetration method) and SAXS; assay type: physicochemical; conditions: for liquid crystal phase formed: mixed with water, polarizing microscopy and/or SAXS
Description: Whether or not the amphiphilic lipid/water system forms cubic liquid crystals and whether or not such composition is type I or II can be easily determined by the penetration method. A small amount (several mg) of amphiphilic lipids is placed on a glass slide for a microscope, and slight pressure is applied with a glass cover to form a thin layer of amphiphilic lipids (diameter: about 1 to 5 mm) with a thickness of about 10 μm in the gap between the glass slide and the glass cover. Upon addition of water or an aqueous medium from a side of the gap between the glass slide and the glass cover by capillary action, water gradually invades the amphiphilic lipid thin layer from the exterior edge, and a water content gradient is formed from the amphiphilic lipid thin layer/water interface toward the inside of the amphiphilic lipid thin layer. Polarizing microscopic observation thereof enables the determination of a phase type formed depending on the concentration of the amphiphilic lipid/water system. […] In FIG. 2, 4 regions are observed. The rightmost region in the photograph indicates a water region, and the other regions indicate hydrous amphiphilic lipid regions. In the photograph, the rightmost regions indicates the highest water content and the leftmost region indicates a region of amphiphilic lipids that has not yet been penetrated by water. […] Since cubic liquid crystals are stably formed at the interface of excess water and the amphiphilic lipid portion, such crystals are found to be of type II.
To this end, whether or not the liquid crystal structure has cubic lattices may be investigated by the small-angle x-ray scattering (SAXS) assay. In this process, a sample of an amphiphilic lipid/water system at a given concentration may be introduced into a quartz X-ray capillary tube, the capillary may be sealed with an oxygen burner, and the resultant may be subjected to the SAXS assay.
The cubic liquid crystal composition of the present invention is not particularly limited. […] Thus, spaces and lattice constants can be easily determined. The peak values of small angle X-ray scattering or the cubic lattice size of cubic liquid crystals in the presence of an excess aqueous solvent are at constant levels regardless of the lipid concentration. The coexistence state of cubic liquid crystals and an excess aqueous medium can be confirmed by the SAXS assay. Thus, whether or not the cubic liquid crystals are of type II can be easily determined.
In equations, nL and nW are actually measurable, and ac can be measured by the SAXS experiment. Thus, the dhc value can be determined based on equations (ii) and (iii). […] Based on such comparison, whether or not the cubic liquid crystal structure is of a bicontinuous type can be determined.
Mono-O-(3,7,11,15-tetramethylhexadecyl)pentaerythritol (hereafter referred to as “mono-O-(phytanyl)pentaerythritol,” formula (5) above) and pure water were introduced into a mixing device, and incubation was carried out while performing 100 or more times of mixing operations at room temperature (23° C.) over the period of 48 hours. Thus, a homogeneously mixed sample of mono-O-(phytanyl)pentaerythritol/water system was obtained. This sample of mono-O-(phytanyl)pentaerythritol/water system appeared to be a transparent gel composition.
Subsequently, the thus obtained sample of mono-O-(phytanyl)pentaerythritol/water system (the concentration of the amphiphilic compound: 74.6% by mass) was observed by polarizing microscopy. In entire region of the lipid portions, optically isotropic textures peculiar to the cubic liquid crystals were observed (FIG. 3). In FIG. 3, the right region indicates water and the left region indicates the sample of mono-O-(phytanyl)pentaerythritol/water system. […] Such observation indicates the formation of cubic liquid crystals.
Subsequently, the sample of mono-O-(phytanyl)pentaerythritol/water system was confirmed to be a cubic liquid crystal by small-angle x-ray scattering (SAXS). […]

[2] = Krafft temperature (TK) by DSC of amphiphilic compound/water system; assay type: physicochemical; conditions: for Krafft temperature (° C.): amphiphilic compound alone; for TK (Krafft temperature): compound/water system
Procedure: Liquid crystals such as cubic liquid crystals formed by amphiphilic lipids are formed only at the Krafft temperature (TK), as determined depending on types and concentrations of amphiphilic lipids, or higher. Furthermore, liquid crystals generally undergo a phase transition upon changes in the concentration of the amphiphilic lipid or temperature. Accordingly, the maximal temperature (Tmax) at which a given liquid crystal structure can be stably present is also determined depending on lipid type and concentration of amphiphilic lipid. Thus, a liquid crystal structure formed by a given type of amphiphilic lipid is stably formed in the temperature range between TK and Tmax. The correlation between TK-Tmax and the concentration of the amphiphilic lipid is generally indicated as a “concentration-temperature dependent phase diagram” of the amphiphilic lipid/water system. The Krafft temperature of the amphiphilic lipid can be determined by a method known in the art, such as a method involving the preparation of such a phase diagram (e.g., Laughlin, R. G., “The Aqueous Phase Behavior of Surfactants,” 1994, Academic Press London, pp. 106-117). The Krafft temperature of a mixture of two or more amphiphilic lipids can be determined by the same method.
In the cubic liquid crystal composition of the present invention, stable bicontinuous type II cubic liquid crystals are formed at low temperatures, such as lower than 6° C. In the liquid crystal composition of the present invention, stable bicontinuous type II cubic liquid crystals are typically formed between −10° C. (or at the freezing temperature of the aqueous medium used or higher) and 80° C., and preferably between 0° C. and 50° C. The Krafft temperature of the amphiphilic lipid can be easily determined by, for example, DSC assay of an aqueous solution containing 1% to 85% by mass of amphiphilic lipid or by observing the melting behavior of the amphiphilic lipid under a (polarizing) microscope. More precisely, such temperature may be determined in accordance with a conventional technique involving the preparation of a phase diagram (e.g., Laughlin, R. G., “The Aqueous Phase Behavior of Surfactants,” 1994, Academic Press, London, pp. 106-117).
The Krafft temperatures of these amphiphilic compounds and mixtures thereof determined by the analyses described below are shown in Table 2-1 and Table 2-2.
Subsequently, the sample of mono-O-(phytanyl)pentaerythritol/water system was subjected to differential scanning calorimetry (DSC) in a temperature range between −45° C. and 70° C. DSC analysis employed the Seiko SSC/560U differential scanning calorimeter (Seiko Instruments Inc.). The sample of mono-O-(phytanyl)pentaerythritol/water system (72.4% by mass) prepared by the above method was sealed in a DSC cell, and the sample was incubated while cooling at −45° C. for 3 hours to thoroughly form a hydrated solid of mono-O-(phytanyl)pentaerythritol (hereafter abbreviated as “hydrated solid”). Subsequently, this hydrated solid was heated at a rate of temperature increase of 0.5° C./minute and a melting behavior of the hydrated solid was inspected by DSC analysis. As a result, an endothermic peak resulting from melting of the hydrated solid that begins at around −40° C. and ends at around −27° C. and an endothermic peak resulting from ice melting observed between −10° C. and 1° C. were observed, as shown in FIG. 4. In FIG. 4, the left peak is the endothermic peak resulting from melting of the hydrated solid and the right peak is the endothermic peak resulting from ice melting. Although analysis was conducted up to 70° C., other thermal transition was not observed. Substantially the same results were obtained at other concentrations. Thus, the TK of mono-O-(phytanyl)pentaerythritol was concluded to be 0° C. or lower.

[3] = lipid alone, total amphiphilic compound content 60% by mass (excess water)

CC(C)CCCC(C)CCCC(C)CCCC(C)CCOCC(O)CO (stereo not shown) [1-O-(3,7,11-15-tetramethylhexadecyl)glycerol, reference compound]
liquid crystal phase formed [1]: type II hexagonal liquid crystals

CC(C)CCCC(C)CCCC(C)CCCCOCC(CO)(CO)CO (stereo not shown) [formula (12), mono-O-(5,9,13-trimethyltetradecyl)pentaerythritol]
Krafft temperature (° C.) [2]: 0 °C or lower | TK (Krafft temperature) [2]: ≤ 0 °C

CC(C)CCCC(C)CCCC(C)CCCC(C)CC(=O)OCC(CO)(CO)CO (stereo not shown) [formula (6), mono-O-(3,7,11,15-tetramethylhexadecanoyl)pentaerythritol]
lattice constant ([1]; 58.9% by mass, 25° C.): 10.6 nm | lattice constant ([1]; 58.9% by mass, 55° C.): 8.3 nm | Temperature at which formation of cubic liquid crystals was observed (° C.) ([1]; Table 4, 56.0% by mass, two-phase system of Pn3m cubic and lamellar liquid crystals): 1 (Two-phase system of Pn3m cubic liquid ° C. | Krafft temperature (° C.) [2]: 0 °C or lower | TK (Krafft temperature) [2]: ≤ 0 °C

CC(C)CCCC(C)CCCC(C)CCCCOCC(O)C(O)CO (stereo not shown) [formula (3), 1-O-(5,9,13-trimethyltetradecyl)erythritol]
lattice constant ([1]; Ia3d, 53.7% by mass, 20° C.): 17.3 nm | lattice constant ([1]; Ia3d, 53.7% by mass, 35° C.): 17.2 nm | lattice constant ([1]; Ia3d, 53.7% by mass, 40° C.): 17.1 nm | Temperature at which formation of cubic liquid crystals was observed (° C.) ([1]; Table 6, 53.7% by mass, Ia3d + Pn3m): 40 (Ia3d + Pn3m cubic liquid crystals) ° C. | Krafft temperature (° C.) [2]: 0 °C or lower | TK (Krafft temperature) [2]: ≤ 0 °C

CC(C)CCCC(C)CCCC(C)CCCC(C)CCCC(=O)OCC(O)C(O)CO (stereo not shown) [formula (7), 1-O-(5,9,13,17-tetramethyloctadecanoyl)erythritol]
Krafft temperature (° C.) [2]: 0 °C or lower | TK (Krafft temperature) [2]: ≤ 0 °C

CC(C)CCCC(C)CCCC(C)CCCC(C)CCOC1OC[C@@H](O)C(O)C1O (stereo partly shown) [formula (11)]
lattice constant ([1]; 84.2% by mass, 1° C.): 9.8 nm | lattice constant ([1]; 84.2% by mass, 25° C.): 9.7 nm | lattice constant ([1]; 84.2% by mass, 40° C.): 9.6 nm | Temperature at which formation of cubic liquid crystals was observed (° C.) ([1]; Table 12, 78.0% by mass, Ia3d): 1 (Ia3d cubic liquid crystals) ° C. | Krafft temperature (° C.) [2]: 0 °C or lower | TK (Krafft temperature) ([2]; listed as α-XP): ≤ 0 °C

CC(C)CCCC(C)CCCC(C)CCCC(C)CCCC(=O)OC[C@H](O)[C@H]1OC(=O)C(O)=C1O (stereo partly drawn) [formula (15), 6-O-(5,9,13,17-tetramethyloctadecanoyl)-L-ascorbic acid]
lattice constant ([1]; Ia3d, 69% by mass, 30° C.): 17.4 nm | lattice constant ([1]; Ia3d, 69% by mass, 40° C.): 16.9 nm | lattice constant ([1]; Ia3d, 69% by mass, 50° C.): 17.0 nm | lattice constant ([1]; Pn3m, 61% by mass, 1° C.): 12.2 nm | lattice constant ([1]; Pn3m, 61% by mass, 20° C.): 12.2 nm | lattice constant ([1]; Pn3m, 61% by mass, 30° C.): 12.1 nm | lattice constant ([1]; Pn3m, 61% by mass, 40° C.): 11.4 nm | lattice constant ([1]; Pn3m, 61% by mass, 50° C.): 11.0 nm | lattice constant ([1]; Pn3m, 61% by mass, 60° C.): 10.1 nm | Temperature at which formation of cubic liquid crystals was observed (° C.) ([1]; Table 13, 69% by mass, two-phase system of Pn3m and Ia3d cubic liquid crystals): 20 (Two-phase system of Pn3m and Ia3d ° C. | Krafft temperature (° C.) [2]: 0 °C or lower | TK (Krafft temperature) [2]: ≤ 0 °C

CC(C)CCCC(C)CCCC(C)CCOCC(O)C(O)CO (stereo not shown) [formula (2), 1-O-(3,7,11-trimethyldodecyl)erythritol]
Krafft temperature (° C.) [2]: 0 °C or lower

CC(C)CCCC(C)CCCC(C)CCCC(C)CCCCOCC(CO)(CO)CO (stereo not shown) [formula (8), mono-O-(5,9,13,17-tetramethyloctadecyl)pentaerythritol]
liquid crystal phase formed [1]: bicontinuous type II Pn3m cubic liquid crystals | Krafft temperature (° C.) [2]: 0 °C or lower | TK (Krafft temperature) [2]: ≤ 0 °C

CC(C)CCCC(C)CCCC(C)CCCC(C)CCCC(=O)OCC(CO)(CO)CO (stereo not shown) [formula (9)]
liquid crystal phase formed [1]: bicontinuous type II Pn3m cubic liquid crystals | Krafft temperature (° C.) [2]: 0 °C or lower | TK (Krafft temperature) [2]: ≤ 0 °C

CC(C)CCCC(C)CCCC(C)CCCC(C)CCOCC(CO)(CO)CO (stereo not shown) [formula (5), mono-O-(3,7,11,15-tetramethylhexadecyl)pentaerythritol]
maximal temperature at which the cubic liquid crystal structure is formed [1]: 40 °C | lattice constant ([1]; 56.7% by mass, Pn3m cubic liquid crystals, 1° C.): 8.2 nm | lattice constant ([1]; 74.6% by mass, Ia3d cubic liquid crystals, 1° C.): 12.3 nm | Temperature at which formation of cubic liquid crystals was observed (° C.) ([1]; 74.6% by mass, two-phase system of Ia3d and Pn3m cubic liquid crystals): 25 (Two-phase system of Ia3d and Pn3m cubic ° C. | dhc value of bilayer membrane of the cubic liquid crystal structure ([1]; calculated based on SAXS results): 1.17±0.1 nm | diameter of the water channel of the cubic liquid crystals [1, 3]: 2.5 nm | lattice constant of the cubic liquid crystals [1, 3]: 7.06 nm | Krafft temperature (° C.) [2]: 0 °C or lower | TK (Krafft temperature) [2]: ≤ 0 °C

CC(C)CCCC(C)CCCC(C)CCCC(C)CCCCOC1OC[C@@H](O)C(O)C1O (stereo partly drawn) [formula (10), 1-O-(5,9,13,17-tetramethyloctadecyl)-β-D-xylopyranoside]
lattice constant ([1]; 61.5% by mass, 1° C.): 10.1 nm | lattice constant ([1]; 61.5% by mass, 30° C.): 9.9 nm | lattice constant ([1]; 61.5% by mass, 40° C.): 9.5 nm | Krafft temperature (° C.) [2]: 0 °C or lower | TK (Krafft temperature) [2]: ≤ 0 °C
